Assay results taken from article PMC10251479, “PROTAC-Induced Glycogen Synthase Kinase 3β Degradation as a Potential Therapeutic Strategy for Alzheimer’s Disease” (ACS Chemical Neuroscience, 2023).
“And” between values parts separate entries of the source, which are not always exact repeats. Equal entries are not always repeated.

Legend:
[1] = PAMPA-BBB permeation; type: in vitro ADME; conditions: for Papp at 2.75 h: PAMPA, pH 7.4, PBS:EtOH (70:30), 2 h 45 min at 25 °C, porcine brain lipid, mean ± SD of two independent experiments, read-out: Pe (experimental data)
Method: 11. PAMPA BBB permeation studies.
Prediction of the brain penetration was evaluated using a parallel artificial membrane permeability assay (PAMPA).[12] Ten commercial drugs, PBS at pH 7.4, EtOH, and dodecane were purchased from Sigma- Aldrich, Acros organics, Merck, and Fluka. The porcine polar brain lipid (PBL) was from Avanti Polar Lipids. The donor plate was a 96-well filtrate plate (Multiscreen® IP Sterile Plate PDVF […]
both from Millipore. Filter PDVF membrane units (diameter 30 mm, pore size 0.45 µm) from Symta were used to filter the samples. A 96-well plate UV reader (Biteck Instruments, Synergy H4 Hibrid Reader) was used for the UV measurements.
12 mg of promazine) were dissolved in 1 mL of EtOH. 100 µL of this compound stock solution were taken and 1400 µL of EtOH and 3500 µL of PBS were added to reach 30% of EtOH concentration in the experiment. These solutions were filtered. The acceptor 96-well microplate was filled with 180 µL of PBS/EtOH (70/30). The donor 96-well plate was coated with 4 µL of porcine brain lipid in dodecane (20 mg mL-1) and after 5 min, 180 µL of each compound solution was added. 1 mg of […]
of EtOH and 1.4 mL of PBS, filtered and then added to the donor 96-well plate. Then the donor plate was carefully put on the acceptor plate to form a “sandwich”, which was left undisturbed for 2 h and 45 min at 25 °C. During this time the compounds diffused from the donor plate through the brain lipid membrane into the acceptor plate. After incubation, the donor plate was removed. UV plate reader determined the concentration of compounds and commercial drugs in the acceptor and the donor plates. Every sample was analyzed at three to five wavelengths (between 200 and 500 nm), in 3 wells and in two independent runs. Results are given as the mean and the average of the two runs is reported. Quality control compounds (previously mentioned) of known BBB permeability were included in each experiment to validate the analysis set.

[2] = test system: SH-SY5Y cells; experiment: Cytotoxicity in SH-SY5Y cells (MTT); type: cell-based, human; conditions: MTT, 24 h treatment, 1.25–40 μM
Method: Human neuronal SH-SY5Y cells (Sigma-Aldrich, St. Louis, MO, USA) were routinely grown in Dulbecco’s modified Eagle’s Medium supplemented with 10% fetal bovine serum, 2 mM l-glutamine, 50 U/mL penicillin, and 50 μg/mL streptomycin at 37 °C in a humidified incubator with […]
Determination of cytotoxicity
(§1) SH-SY5Y cells were seeded in a 96-well plate at 2 × 10^4 cells/well, incubated for 24 h and then […]
for 24 h at 37°C in 5% CO2. The cell viability, in terms of mitochondrial metabolic function, was evaluated by the reduction of 3-(4,5-dimethyl-2-thiazolyl)-2,5-diphenyl-2H-tetrazolium bromide […]
(MTT) to its insoluble formazan. Briefly, the treatment was replaced with MTT in HBSS [0.5 mg/mL] for 2 h at 37°C in 5% CO2. After washing with HBSS, formazan crystals were dissolved in isopropanol. The amount of formazan was measured (570 nm, reference filter 690 nm) using a multilabel plate reader (VICTOR™ X3, PerkinElmer, Waltham, MA, USA). Data are expressed as mean of three independent experiments. […]

[3] = molecular target: T1, GSK-3β protein (Homo sapiens, UniProt P49841); experiment: GSK-3β degradation by Western blotting in SH-SY5Y cells; type: cell-based; parameters: endogenous in cells; host or cells: SH-SY5Y; conditions: 10 μM, 48 h, Western blotting
T1 sequence (P49841 whole entry): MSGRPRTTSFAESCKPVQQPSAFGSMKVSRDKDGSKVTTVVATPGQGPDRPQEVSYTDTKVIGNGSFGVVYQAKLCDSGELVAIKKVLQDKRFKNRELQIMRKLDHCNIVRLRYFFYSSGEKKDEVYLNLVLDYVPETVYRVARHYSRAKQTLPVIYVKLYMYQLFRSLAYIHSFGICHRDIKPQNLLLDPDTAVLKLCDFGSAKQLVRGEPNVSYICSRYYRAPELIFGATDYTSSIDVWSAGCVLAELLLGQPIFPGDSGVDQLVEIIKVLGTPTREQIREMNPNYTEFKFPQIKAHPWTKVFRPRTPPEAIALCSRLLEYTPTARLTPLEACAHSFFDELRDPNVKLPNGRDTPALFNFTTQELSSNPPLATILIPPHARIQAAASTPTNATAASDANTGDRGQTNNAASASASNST
Method: Determination of GSK-3β degradation by Western Blotting
At the end of incubation, cells were trypsinized and the cellular pellet was resuspended in complete lysis buffer containing leupeptin (2 µg/mL, Sigma-Aldrich), phenylmethylsulfonyl fluoride (PMSF, 100 µg/mL, Sigma-Aldrich) and a cocktail of protease/phosphatase inhibitors (100×). The protein concentration was determined using the Bradford method (Bio-Rad Laboratories Srl, Hercules, CA, USA). The protein lysates (50 µg per […]
polyacrylamide gels, Bio-Rad Laboratories SrL) and electroblotted onto 0.45 µm nitrocellulose membranes. Membranes were incubated overnight at 4 °C with primary antibody recognizing GSK-3β (1:1000, Cell Signaling Technologies Inc, Danvers, MA, USA). Membranes were then washed with TRIS-buffered saline-T (TBS + 0.05% Tween20), and then incubated with horseradish peroxidase (POD) linked anti-rabbit secondary antibody (1:2000, GE Healthcare, Chicago, IL, USA).
Immunoreactive bands were visualized by enhanced chemiluminescence (ECL, Bio-Rad Laboratories Srl). The same membranes were stripped and reprobed with anti β-actin (1:1000, Sigma-Aldrich). Data were normalized on the β-actin bands and analyzed by densitometry, using the Quantity One software (Bio-Rad Laboratories Srl).[9] […]

[4] = molecular target: T1, GSK-3β protein; experiment: GSK-3β inhibition in vitro assay (Kinase-Glo luminescent); type: biochemical; parameters: purchased Millipore (Millipore Iberica S.A.U.); conditions: ATP 1 μM, GSM substrate 25 μM, 30 min at 37 °C; mean of at least two determinations in duplicate; read-out: IC50 ± SEM, GSK-3β activity
From the text: N-(2-(2-(2-((2-(2,6-dioxopiperidin-3-yl)-1,3-dioxoisoindolin-4-yl)amino)ethoxy)ethoxy)ethyl)- 4-((2-(naphthalen-1-yl)-3,5-dioxo-1,2,4-thiadiazolidin-4-yl)methyl)benzamide (4). Synthesized […]
GSK-3β inhibition in vitro assay. Human recombinant GSK-3β, prephosphorylated polypeptide substrate and white 96-well plates were purchased from Millipore (Millipore Iberica S.A.U.). Kinase-Glo Luminescent Kinase Assay was obtained from Promega (Promega Biotech Iberica, SL).
Adenosinetriphosphate (ATP) and all other reagents were from Sigma-Aldrich. Assay buffer contained 50 mM 4-(2-hydroxyethyl)-1- piperazineethanesulfonic acid (HEPES) (pH 7.5), 1 mM ethylenediaminetetraacetic acid (EDTA), 1 mM ethylene glycol tetraacetic acid (EGTA), and 15 mM magnesium acetate. The in solution experiments for GSK-3β inhibition analysis were performed by following the method developed by Baki et al.[1] In a typical assay, 10 μL of test compound (dissolved […]
in DMSO at 1 mM concentration and diluted in advance in assay buffer to the desired concentration) and 10 μL (20 ng) of enzyme were added to each well in presence of 20 μL of assay buffer containing […]
After a 30 min incubation time at 37 °C, the enzymatic reaction was stopped by adding 40 μL of Kinase-Glo reagent. Glow-type luminescence was recorded after 10 min using a Victorx3 (PerkinElmer Waltham, MA, USA) plate […]
inhibitory activities were calculated based on maximal kinase (average positive) and luciferase activities (average negative) measured in the absence of inhibitor and in the presence of reference […]
μM), respectively. The linear regression parameters were determined and the IC 50 extrapolated by GraphPad software (version 5.0; GraphPad Software, La Jolla, CA, USA).

[5] = commercial drugs of the validation study; ref [12]; cited from earlier work
[6] = test system: SH-SY5Y cells; experiment: Neuroprotective effects against CuSO4 in SH-SY5Y cells (MTT); type: cell-based, human; conditions: 1 μM, 24 h, CuSO4 150 μM, MTT
Method: as §1
presence of CuSO4 (150 µM) at 37 °C in 5 % CO2. Cells were also treated with compound 1 (1 µM) for 24 h in the presence of lactacystin (5 µM). At the end of the treatment, the cell viability, in terms of mitochondrial metabolic function, was evaluated by the reduction of 3-(4,5-dimethyl-2-thiazolyl)- 2,5-diphenyl-2H-tetrazolium bromide (MTT) to its insoluble formazan. Briefly, the treatment was replaced with MTT in HBSS [0.5 mg/mL] for 2 h at 37°C in 5% CO2. After washing with HBSS, formazan crystals were dissolved in isopropanol. The amount of formazan was measured (570 nm, reference filter 690 nm) using a multilabel plate reader (VICTOR™ X3, PerkinElmer, Waltham, MA, USA).[10] Data are reported as mean ± SEM of three independent experiments. The neurotoxicity was expressed as a percentage of control cells and calculated by the formula: 100 – ((absorbance of treated

[7] = classified from experimental Pe

| SMILES | Papp at 2.75 h [1] [nm/s] | concentration at which cytotoxicity was shown [2] | total GSK-3β protein level [3] | other results |
| --- | --- | --- | --- | --- |
| Cn1c(=O)c2c(ncn2C)n(C)c1=O [Caffeine, reference compound] | 72.9 ± 5.7 | – | – | – |
| O=C1CCC(N2C(=O)c3cccc(NCCCOCCCCOCCCNC(=O)c4ccc(Cn5c(=O)sn(-c6cccc7ccccc67)c5=O)cc4)c3C2=O)C(=O)N1 (stereo not drawn) [Compound 2] | – | ≥ 20 µM | did not induce GSK-3β degradation | IC50 [4]: 0.0793 µM and 0.079 µM |
| O=C1CCC(N2C(=O)c3cccc(NCCOCCOCCNC(=O)c4ccc(Cn5c(=O)sn(-c6cccc7ccccc67)c5=O)cc4)c3C2=O)C(=O)N1 (stereo not drawn) [Compound 4, N-(2-(2-(2-((2-(2,6-dioxopiperidin-3-yl)-1,3-dioxoisoindolin-4-yl)amino)ethoxy)ethoxy)ethyl)-4-((2-(naphthalen-1-yl)-3,5-dioxo-1,2,4-thiadiazolidin-4-yl)methyl)benzamide] | – | higher than 20 μM | did not induce GSK-3β degradation | IC50 [4]: 0.178 µM |
| CCn1cc(C(=O)O)c(=O)c2cc(F)c(N3CCNCC3)nc21 [Enoxacin, reference compound] | 103 ± 9.5 | – | – | – |
| CCn1cc(C(=O)O)c(=O)c2cc(F)c(N3CCNCC3)cc21 [Norfloxacin, reference compound] | 53.7 ± 1.7 | – | – | – |
| CN1C(C(=O)Nc2ccccn2)=C(O)c2ccccc2S1(=O)=O [Piroxicam, reference compound] | 128 ± 6.3 | – | – | Pe (literature data) [5]: 2.5 10-6 cm s-1 |
| CN(C)CCCN1c2ccccc2Sc2ccccc21 [Promazine, reference compound] | 242 ± 8.9 | – | – | Pe (literature data) [5]: 8.8 10-6 cm s-1 |
| Cn1cc(C2=C(c3ccc(Cl)cc3Cl)C(=O)NC2=O)c2ccccc21 [SB-216763, reference compound] | – | higher than 20 μM | did not modify the basal level of GSK-3β protein | neurotoxicity induced by CuSO4 [6]: significantly counteracted the neurotoxicity induced by CuSO4 |
| O=c1sn(-c2cccc3ccccc23)c(=O)n1Cc1ccccc1 [tideglusib, reference compound] | – | – | – | neurotoxicity induced by CuSO4 [6]: significantly counteracted the neurotoxicity induced by CuSO4 |

Further lines, with some results ahead:

| Papp at 2.75 h [1] [nm/s] | SMILES | concentration at which cytotoxicity was shown [2] | total GSK-3β protein level [3] | other results |
| --- | --- | --- | --- | --- |
| 207 ± 39.3 | O=C(Cn1cc(C2=C(c3ccc(Cl)cc3Cl)C(=O)NC2=O)c2ccccc21)NCCOCCOCCNc1cccc2c1C(=O)N(C1CCC(=O)NC1=O)C2=O (stereo not drawn) [Compound 3] | higher than 20 μM | significantly decreased the total level of GSK-3β protein | BBB permeability classification [1, 7]: predicted to cross the BBB; Prediction (penetration in the CNS) [1, 7]: CNS + (CNS + (green) for P e > 15.78 × 10−6 cm s−1); IC50 [4]: 0.457 ± 0.099 µM |
| 365 ± 53.5 | CNCCCN1c2ccccc2CCc2ccccc21 [Desipramine, reference compound] | – | – | – |
